The target of one assay is T1, HLA-DRB1*04:01 (Homo sapiens, UniProt P01903+P01911, A100K/A169T/F76Y/I96L/K127E/L162R/M171V/N62H/P40V/Q125Y/R42H/S133A/S149N/S66Y/V115G/V209L/W38E).
T1 construct: EBV transformed homozygous cell lines were used as sources of MHC molecules; endogenous in cells; host or cells: EBV transformed homozygous cell lines
The assay is described as follows: HLA class II peptide binding, inhibition of radiolabeled peptide binding to purified MHC. The following applies: for DRB1*04:01 binding capacity, WT/cit ratio: ratio of WT IC50 to Cit IC50, >1 = citrullination increases binding.

The target in another assay is T2, HLA-DRB1*01:01 (Homo sapiens, UniProt P01903+P01911, A100R/D57E/F55L/F60I/F76Y/I96L/L162R/M171V/P40L/Q125E/R42F/V115G/Y59C).
T2 construct: EBV transformed homozygous cell lines were used as sources of MHC molecules; endogenous in cells; host or cells: EBV transformed homozygous cell lines
The assay is described as above. The following applies: for DRB1*01:01 binding capacity, WT/cit ratio: ratio of WT IC50 to Cit IC50, >1 = citrullination increases binding.

The mark [1] stands for this setting: wild-type (unmodified Arg) 15-mer peptide, purified HLA-DRB1*04:01, read-out: DRB1*04:01 binding capacity, WT peptide (IC50 nM).
Setting [2] is: wild-type (unmodified Arg) 15-mer peptide, purified HLA-DRB1*01:01, read-out: DRB1*01:01 binding capacity, WT peptide (IC50 nM).
Where [3] appears, read: read-out: DRB1*04:01 binding capacity, WT peptide (IC50 nM).
Where [4] appears, read: read-out: DRB1*01:01 binding capacity, WT peptide (IC50 nM).
The mark [5] stands for this setting: citrullinated 15-mer (X), purified MHC, inhibition of radiolabeled peptide binding, dash = IC50 >40,000 nM, read-out: DRB1*04:01 binding capacity, Cit peptide (IC50 nM).
The mark [6] stands for this setting: citrullinated 15-mer (X), purified MHC, inhibition of radiolabeled peptide binding, dash = IC50 >40,000 nM, read-out: DRB1*01:01 binding capacity, Cit peptide (IC50 nM).
The mark [7] stands for this setting: citrullinated 15-mer peptide (X = citrulline), purified HLA-DRB1*04:01, read-out: DRB1*04:01 binding capacity, Cit peptide (IC50 nM).
Where [8] appears, read: citrullinated 15-mer peptide (X = citrulline), purified HLA-DRB1*01:01, read-out: DRB1*01:01 binding capacity, Cit peptide (IC50 nM).

The values below come from paper PMC5421785, “Citrullination only infrequently impacts peptide binding to HLA class II MHC” (PLoS ONE, 2017).

Like-named read-outs stand apart in the source and are kept apart here. Square brackets hold non-standard residues; d marks the D form. Ends that are not written are not given here. Peptide text beside a SMILES is read from it. Cit = NC(=O)NCCC[C@H](N)C(=O)O Where only a bound is given, the exact number is not on record here.

One may read the IC50 as the concentration needed to halve the response being measured.

As for PGPAGPTGKQGDRGE [Collagen 1076 WT], the IC50 on HLA-DRB1*04:01 (setting [1]) and on HLA-DRB1*01:01 (setting [2]) was more than 40000 nM each time.

Turning to DNLAEDIMRLREKLQ [Vimentin 176 WT], the figures for the IC50 on HLA-DRB1*04:01 (setting [3]) and at HLA-DRB1*01:01 (setting [4]) were more than 40000 nM and 4570 nM, respectively.

Turning to `CC(C)C[C@H](NC(=O)[C@H](CCC(N)=O)NC(=O)[C@H](CC(=O)O)NC(=O)[C@@H](NC(=O)[C@H](CCC(N)=O)NC(=O)[C@H](CCCNC(N)=O)NC(=O)[C@H](CCCNC(=N)N)NC(=O)[C@H](CC(C)C)NC(=O)[C@@H](N)CCC(=O)O)C(C)C)C(=O)N[C@H](C(=O)N[C@@H](CC(N)=O)C(=O)N[C@@H](CC(=O)O)C(=O)N[C@@H](CCCCN)C(=O)N[C@@H](C)C(=O)N[C@@H](CCCNC(=N)N)C(=O)O)[C@@H](C)O` [ELRXQVDQLTNDKAR] (H-ELR[Cit]QVDQLTNDKAR-OH), the IC50 at HLA-DRB1*04:01 (setting [5]) is 11000 nM; at HLA-DRB1*01:01 (setting [6]) it was 2240 nM.

For the compound `CC(C)C[C@H](NC(=O)[C@H](CO)NC(=O)[C@H](Cc1ccccc1)NC(=O)[C@H](CC(=O)O)NC(=O)[C@@H](NC(=O)[C@H](CO)NC(=O)[C@H](CC(=O)O)NC(=O)[C@H](CCC(N)=O)NC(=O)[C@H](CC(C)C)NC(=O)[C@H](CC(C)C)NC(=O)[C@H](CCCNC(N)=O)NC(=O)[C@@H](NC(=O)CN)C(C)C)C(C)C)C(=O)N[C@@H](C)C(=O)N[C@@H](CC(=O)O)C(=O)O` [GVXLLQDSVDFSLAD], the IC50 on HLA-DRB1*04:01 (setting [5]) was 918 nM; on HLA-DRB1*01:01 (setting [6]) it was 541 nM.

In the case of `CC(C)C[C@H](NC(=O)CNC(=O)[C@H](CCC(N)=O)NC(=O)[C@@H]1CCCN1C(=O)CNC(=O)[C@@H]1CCCN1C(=O)[C@@H]1CCCN1C(=O)CNC(=O)[C@H](CCC(=O)O)NC(=O)[C@H](C)NC(=O)CN)C(=O)N[C@@H](C)C(=O)NCC(=O)N[C@@H](CCC(N)=O)C(=O)N[C@@H](CCCNC(N)=O)C(=O)O` [GAEGPPGPQGLAGQX] (H-GAEGPPGPQGLAGQ[Cit]-OH; N-terminus and C-terminus assumed), the IC50 on HLA-DRB1*04:01 (setting [7]) and at HLA-DRB1*01:01 (setting [8]) was more than 40000 nM in each case. At HLA-DRB1*04:01, the “DRB1*04:01 binding capacity, WT/cit ratio” value is 1.0. The “DRB1*01:01 binding capacity, WT/cit ratio” value on HLA-DRB1*01:01 is reported as 1.0.

In the case of ERKVESLQEEIAFLK [Vimentin 221 WT], the IC50 was more than 40000 nM at HLA-DRB1*04:01 (setting [3]) and 103 nM on HLA-DRB1*01:01 (setting [4]).

Take `CC(C)C[C@H](NC(=O)[C@H](CCCNC(=N)N)NC(=O)[C@H](C)N)C(=O)N[C@@H](CC(=O)O)C(=O)N[C@@H](CC(C)C)C(=O)N[C@@H](CCC(=O)O)C(=O)N[C@@H](CCCNC(N)=O)C(=O)N[C@@H](CCCCN)C(=O)N[C@H](C(=O)N[C@@H](CCC(=O)O)C(=O)N[C@@H](CO)C(=O)N[C@@H](CC(C)C)C(=O)N[C@@H](CCC(N)=O)C(=O)N[C@@H](CCC(=O)O)C(=O)N[C@@H](CCC(=O)O)C(=O)O)C(C)C` [ARLDLEXKVESLQEE] (H-ARLDLE[Cit]KVESLQEE-OH): the results for the IC50 on HLA-DRB1*04:01 (setting [5]) and at HLA-DRB1*01:01 (setting [6]) were 12000 nM and 1340 nM, respectively.

Consider `C[C@H](NC(=O)[C@@H]1CCCN1C(=O)CNC(=O)[C@@H]1CCCN1)C(=O)NCC(=O)N1CCC[C@H]1C(=O)N[C@H](C(=O)NCC(=O)N[C@@H](CCCCN)C(=O)N[C@@H](CCC(N)=O)C(=O)NCC(=O)N[C@@H](CC(=O)O)C(=O)N[C@@H](CCCNC(N)=O)C(=O)NCC(=O)N[C@@H](CCC(=O)O)C(=O)O)[C@@H](C)O` [PGPAGPTGKQGDXGE] (H-PGPAGPTGKQGD[Cit]GE-OH; N-terminus and C-terminus assumed), for which the IC50 at HLA-DRB1*04:01 (setting [7]) and at HLA-DRB1*01:01 (setting [8]) was more than 40000 nM throughout. Further, the “DRB1*04:01 binding capacity, WT/cit ratio” value on HLA-DRB1*04:01 was found to be 1.0. On HLA-DRB1*01:01, the “DRB1*01:01 binding capacity, WT/cit ratio” value is listed as 1.0.

As to QGPRGLPGTPGTDGP [Collagen 716 WT], the IC50 is more than 40000 nM on HLA-DRB1*04:01 (setting [1]) and 10400 nM on HLA-DRB1*01:01 (setting [2]).
